Laboratory results as given in article PMC12116161, “An Elastase Inhibitor ShSPI from Centipede Attenuates Bleomycin-Induced Pulmonary Fibrosis” (Toxins, 2025).
Where a SMILES comes first, the peptide text is derived from it. Bridges are numbered along the chain shown (N, C = ends).

Tested on: MCP-1, IL-6, IL-1β, IFN-γ, IL-10, TGF-β mRNA in lung tissue
Assay: RT-qPCR of inflammatory factor mRNA in lung tissue of IPF mice
Type: in vivo, ICR mice
Settings: tracheal spray once daily for 7 days, BLM-induced IPF mice
Description: Animal Model Preparation: The peptide powder was dissolved in pre-cooled saline and filtered to remove bacteria, then a spray needle was attached to a micro-syringe to aspirate the peptide solution. A total of 56 ICR mice were anesthetized by intramuscular injection of avertin. After anesthesia, the mice were fixed supine, the tongue was gently pulled, the vocal folds were exposed with a laryngoscope, the trachea was gently inserted, and the nebulized solution was rapidly pushed and injected. Each mouse was administered 100 μL of a 0.4 mg/mL bleomycin solution via tracheal spray, with the treatment performed once. Seven days after modeling, the mice were randomly grouped for ShSPI treatment based on weight loss scores. An additional 8 mice received the vehicle (normal saline) and were designated as the sham group.
A total of 48 suitable mice were randomly divided into five groups: the model control group (MC), the positive control group (PC), and the ShSPI low-dose groups (1 mg/kg), medium-dose groups (2 mg/kg), and high-dose groups (4 mg/kg).
Drug Administration: Starting on day 7 post-modeling, ShSPI peptide treatment groups were anesthetized with intramuscular avertin and received tracheal spray administration of the peptide. The low-dose group was treated with 1 mg/kg ShSPI peptide, the medium-dose group with 2 mg/kg, and the high-dose group with 4 mg/kg. The positive control group, without anesthesia, received 200 mg/kg pirfenidone (IPFD) via oral gavage. All groups were treated once daily for seven consecutive days.
The left lobe of the lung was collected from each mouse for total RNA extraction using RNAiso Plus, following the manufacturer’s instructions. The extracted RNA was quantified using a UV spectrophotometer. One microgram of total RNA was reverse transcribed into cDNA using a first-strand cDNA synthesis kit, following the provided protocol. Quantitative PCR (qPCR) was performed on a QuantStudio system using 2× SYBR Green qPCR Master Mix, and β-actin served as the internal control. The PCR reaction utilized a two-step protocol: 95 °C for 15 s, followed by 60 °C for 60 s, repeated for 40 cycles. Gene expression levels were calculated using the 2^−ΔΔCt method.

CC[C@H](C)[C@@H]1NC(=O)[C@H](C)NC(=O)[C@@H]2CCCN2C(=O)[C@@H]2CSSC[C@H](NC(=O)[C@H](CO)NC(=O)[C@H](CC(N)=O)NC(=O)[C@H](CO)NC(=O)[C@H](Cc3ccc(O)cc3)NC(=O)[C@H](CCSC)NC(=O)[C@H](CCCNC(=N)N)NC(=O)CNC(=O)[C@H](Cc3ccccc3)NC(=O)[C@H](CCC(=O)O)NC(=O)[C@H](CC(=O)O)NC(=O)[C@H](Cc3ccccc3)NC(=O)[C@H](C(C)C)NC(=O)[C@@H]3CCCN3C(=O)[C@H](CCC(N)=O)NC(=O)[C@H](Cc3ccc(O)cc3)NC1=O)C(=O)N[C@@H](CCC(=O)O)C(=O)N[C@@H](CCSC)C(=O)N[C@@H](CCC(N)=O)C(=O)N[C@@H](CCCNC(=N)N)C(=O)N[C@@H](C)C(=O)N[C@@H](CCCNC(=N)N)C(=O)N[C@H](C(=O)N[C@@H](CC(C)C)C(=O)N[C@@H](CCCNC(=N)N)C(=O)NCC(=O)O)CSSC[C@H](N)C(=O)N1CCC[C@H]1C(=O)N[C@@H](CCC(N)=O)C(=O)N[C@@H](C(C)C)C(=O)N2 [ShSPI] (H-CPQVCPAIYQPVFDEFGRMYSNSCEMQRARCLRG-OH; disulfide 1-31, 5-24; N-terminus and C-terminus assumed)
TGF-β mRNA content in mouse lung tissue (ShSPI 1–4 mg/kg): no significant impact
mRNA levels of pro-inflammatory cytokines (MCP-1, IL-6, IL-1β, IFN-γ) in lung tissue (ShSPI high dose 4 mg/kg, β-actin control): restored these pro-inflammatory cytokine ShSPI mRNA levels to normal
IL-10 mRNA level in lung tissue (ShSPI low dose 1 mg/kg, β-actin control): restored the anti-inflammatory cytokine IL-10 mRNA levels to normal
